{"source": "paper PMC5995184", "about": "“Potent anti-leukemic activity of a specific cyclin-dependent kinase 9 inhibitor in mouse models of chronic lymphocytic leukemia” (Oncotarget, 2018)", "key": {"CDK6-Cyclin D3 [1]": {"biological_target": "T1, CDK6-Cyclin D3 (Homo sapiens, UniProt Q00534)", "T1 construct": "purchased Carna Biosciences", "T1 sequence (Q00534 whole entry)": "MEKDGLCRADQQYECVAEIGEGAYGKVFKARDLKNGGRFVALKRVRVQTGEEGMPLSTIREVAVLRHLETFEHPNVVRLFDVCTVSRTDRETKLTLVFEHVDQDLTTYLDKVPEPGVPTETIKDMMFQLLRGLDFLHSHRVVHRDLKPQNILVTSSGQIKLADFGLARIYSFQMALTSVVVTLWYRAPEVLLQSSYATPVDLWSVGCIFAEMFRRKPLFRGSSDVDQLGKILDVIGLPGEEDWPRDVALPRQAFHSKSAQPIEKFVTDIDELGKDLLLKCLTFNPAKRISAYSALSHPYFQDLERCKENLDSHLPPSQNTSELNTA", "T1 sequence (P30281 whole entry partner)": "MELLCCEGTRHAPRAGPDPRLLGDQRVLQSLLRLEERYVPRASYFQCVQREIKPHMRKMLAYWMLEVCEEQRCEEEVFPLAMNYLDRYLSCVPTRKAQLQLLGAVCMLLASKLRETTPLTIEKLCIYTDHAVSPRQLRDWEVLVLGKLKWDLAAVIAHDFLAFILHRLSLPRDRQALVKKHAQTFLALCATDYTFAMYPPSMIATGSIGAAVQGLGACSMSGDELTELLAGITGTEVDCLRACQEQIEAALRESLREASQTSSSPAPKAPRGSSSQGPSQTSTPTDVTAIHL", "test": "FRET-based LANCE Ultra in vitro enzymatic kinase assay, CDK6", "type": "biochemical", "experimental": "(§1) IC50 values for CDK inhibitors were determined using the fluorescence resonance energy transfer (FRET)-based LANCE Ultra KinaSelect Ser/Thr kit (Perkin Elmer). Kinase activity and inhibition were measured according to the manufacturer’s instructions and as previously described. […] FRET signals were recorded in a time-resolved manner in a Perkin Elmer EnVision reader. Purified cyclin-kinase pairs were obtained from the following suppliers: Carna Biosciences (CDK1-Cyclin B1, CDK6-Cyclin D3, CDK7-Cyclin H-MAT1), ProQinase (CDK2-Cyclin A) and Invitrogen (CDK9-Cyclin T1).\n(§2) Data were analyzed with GraphPad Prism 7 software. Differences were assessed by unpaired or paired Student t tests if not indicated otherwise. Two-sided probabilities of less than 0.05 were considered significant. Nonlinear regression sigmoidal dose-response curve fit was used to determine the IC50 values and to generate graphs."}, "CDK6-Cyclin D3 [2]": {"tested_on": "CDK6-Cyclin D3", "test": "FRET-based LANCE Ultra in vitro enzymatic kinase assay, CDK6", "type": "biochemical", "experimental": "as §1, §2"}, "CDK9-Cyclin T1": {"biological_target": "T2, CDK9-Cyclin T1 (Homo sapiens, UniProt P50750)", "T2 construct": "purchased Invitrogen", "T2 sequence (P50750 whole entry)": "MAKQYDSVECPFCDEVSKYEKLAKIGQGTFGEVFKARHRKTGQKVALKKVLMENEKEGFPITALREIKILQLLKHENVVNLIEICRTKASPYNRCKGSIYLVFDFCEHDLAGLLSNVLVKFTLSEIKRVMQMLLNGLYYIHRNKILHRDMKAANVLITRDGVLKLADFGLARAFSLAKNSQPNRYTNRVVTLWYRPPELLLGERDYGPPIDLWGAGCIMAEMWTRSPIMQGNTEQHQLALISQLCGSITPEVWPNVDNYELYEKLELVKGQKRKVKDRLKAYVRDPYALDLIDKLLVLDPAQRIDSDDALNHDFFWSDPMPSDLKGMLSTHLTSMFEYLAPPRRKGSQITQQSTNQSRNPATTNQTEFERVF", "T2 sequence (O60563 whole entry partner)": "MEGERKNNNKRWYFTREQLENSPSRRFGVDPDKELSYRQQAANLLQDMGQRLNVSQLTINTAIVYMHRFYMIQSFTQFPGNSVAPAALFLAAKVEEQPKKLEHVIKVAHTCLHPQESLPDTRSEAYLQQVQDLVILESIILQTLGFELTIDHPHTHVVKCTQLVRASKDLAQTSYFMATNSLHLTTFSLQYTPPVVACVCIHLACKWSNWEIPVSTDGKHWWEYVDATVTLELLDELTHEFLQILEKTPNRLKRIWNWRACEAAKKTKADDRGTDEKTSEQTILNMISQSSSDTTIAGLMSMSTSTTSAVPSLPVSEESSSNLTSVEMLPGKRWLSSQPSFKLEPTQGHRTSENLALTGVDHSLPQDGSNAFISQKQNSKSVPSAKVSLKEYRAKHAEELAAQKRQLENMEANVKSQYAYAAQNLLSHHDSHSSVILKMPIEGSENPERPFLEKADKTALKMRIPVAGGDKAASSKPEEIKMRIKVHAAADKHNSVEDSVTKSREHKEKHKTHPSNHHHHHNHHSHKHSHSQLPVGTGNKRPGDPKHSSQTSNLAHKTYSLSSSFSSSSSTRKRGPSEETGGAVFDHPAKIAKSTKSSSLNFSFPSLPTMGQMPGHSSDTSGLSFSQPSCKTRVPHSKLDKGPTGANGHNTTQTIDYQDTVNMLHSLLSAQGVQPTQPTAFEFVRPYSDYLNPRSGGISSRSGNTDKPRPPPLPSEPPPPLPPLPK", "test": "FRET-based LANCE Ultra in vitro enzymatic kinase assay, CDK9", "type": "biochemical", "details": "CDK9 versus other CDKs", "experimental": "as §1, §2"}, "[3]": {"tested_on": "panel of 219 recombinant kinases", "test": "Broad in vitro selectivity kinase profiling", "type": "biochemical", "details": "1 μM LDC526, 219 kinases", "experimental": "IC50 values for CDK inhibitors were determined using the fluorescence resonance energy transfer (FRET)-based LANCE Ultra KinaSelect Ser/Thr kit (Perkin Elmer). Kinase activity and inhibition were measured according to the manufacturer’s instructions and as previously described. […] Subsequently, phosporylation was detected by addition of specific europium (Eu)-labeled anti-phospho-antibodies (2 nM), which upon binding to the phospho-peptide give rise to a FRET signal. FRET signals were recorded in a time-resolved manner in a Perkin Elmer EnVision reader. Purified cyclin-kinase pairs were obtained from the following suppliers: Carna Biosciences (CDK1-Cyclin B1, CDK6-Cyclin D3, CDK7-Cyclin H-MAT1), ProQinase (CDK2-Cyclin A) and Invitrogen (CDK9-Cyclin T1). Broad selectivity kinase in vitro profiling with LDC526 was carried out using n=219 recombinant kinases (Millipore/Merck, Darmstadt, Germany)."}, "[4]": {"tested_on": "human CLL cells and human T cells in NSG spleens", "test": "Human CLL xenograft in NSG mice, oral LDC526", "type": "in vivo, mouse", "details": "for mean weight loss: 75 mg/kg group", "excerpt": "We and others previously established human CLL xenograft models using NOD/SCID and NSG mice, respectively. We chose to use the NSG model for LDC526 experiments since NSG CLL and concomitant T cell engraftment levels are expected to be higher than in the NOD/SCID model. We intravenously injected PBMCs from n=6 CLL patients into n=57 NSG mice and commenced LDC treatment with a 14 day latency according to the experimental set-up outlined in Figure 3A. To study the effect of doses and treatment duration we chose to administer 50 and 75 mg/kg for three days (NSG transplanted with cells originating from n=3 patients) and for five days (NSG transplanted with cells originating from n=3 additional patients). On experimental days 17 and 21 NSG spleens were harvested and the content of human CLL and T cells was determined by cell counting and flow cytometry (Figure 3B). […] Compared to carrier control treatment, numbers of human CLL cells decreased after 3 and 5 days of LDC526 treatment, respectively. However, statistical significance regarding the reduction of human CLL cell numbers was only achieved at the LDC526 75 mg/kg dose level (Figure 3C). […] In order to determine whether there was differential in vivo LDC526 sensitivity of T cell subsets we performed additional staining for human CD4+ and CD8+ T cells present in the spleens of xenografted NSG mice (Figure 4A). […] In contrast, in mice transplanted with cells of n=2 other CLL patients and receiving LDC526 treatment for 5 days we observed a rising CD4/CD8 ratio with increasing LDC526 doses (Figure 4B). This could mean that CD8+ cytotoxic T cells are more susceptible to longer LDC526 exposure (5 versus 3 days) than CD4+ T cells. However, this differential skew within the T cell compartment could also reflect the heterogeneity of T cells derived from different CLL patients. […] A mean weight loss of 1.8% was detectable in mice of the LDC526 75 mg/kg group (day 16). […] Remarkably, human T cell numbers were already decreased at a lower dose level than human CLL cells.\nAll mice were bred and housed at the University Hospital Essen animal care facility. TCL1 mice were back-crossed more than 6 generations into the C57BL/6 background and were genotyped as previously described. Age-matched TCL1 wild-type littermates served as controls. Peripheral blood counts were determined with the VetABC analyzer (scil, Viernheim, Germany). Blood smears were Wright-Giemsa stained. For the human CLL xenograft experiments eight to 14-week-old NOD.Cg-Prkdc^scid Il2rg^tm1Wjl/SzJ (NOD/scid/γc^null; NSG) mice were sublethally irradiated (3.25 Gy) 24 hours before transplantation. Freshly isolated 1.0 x 10^8 PBMC suspended in 0.2 ml of RPMI were intravenously transplanted as previously described. For oral administration, LDC526 was diluted in polyethelene glycol (PEG Mn 400, Sigma-Aldrich) and administerd by gavage. Animal experiments were performed in accordance with institutional guidelines approved by the Animal Care Committee of the University Hospital Essen.\nLDC526 [(3-((4-(4-fluoro-2-methoxyphenyl)-1,3,5-triazin-2-yl)amino)phenyl)methane-sulfonamide, molecular weight 389,41 g/mol, Figure 1A] was provided as powder (LDC526 synthesis, supplementary methods). For oral gavage administration LDC526 was diluted in polyethelene glycol (PEG Mn 400, Sigma-Aldrich, Munich, Germany) followed by sonication for 3 x 5 minutes with intermediate mixing.\nApoptosis and cell death were determined by using Annexin V (BD Biosciences, Heidelberg, Germany) and 4′,6-Diamidin-2-phenylindol (DAPI, Sigma-Aldrich) staining. Erythrocytes of murine peripheral blood samples were lysed with NH4Cl hypotonic solution. Single cell suspensions of murine spleens were prepared as previously described. Murine cells were stained with antibodies directed against murine CD3 (clone 145-2C11), CD5 (53-7.3) and CD19 (1D3), respectively. […]"}, "[5]": {"details": "75 mg/kg, day 21, representative plot"}}}
{"smiles": "COc1cc(F)ccc1-c1ncnc(Nc2cccc(CS(N)(=O)=O)c2)n1", "note": "[LDC526, (3-((4-(4-fluoro-2-methoxyphenyl)-1,3,5-triazin-2-yl)amino)phenyl)methane-sulfonamide]", "values": [{"measurement": "IC50", "setting": "CDK6-Cyclin D3 [1]", "value": "> 10", "unit": "µM"}, {"measurement": "selectivity versus CDK9 compared to CDK6", "setting": "CDK6-Cyclin D3 [2]", "value": "> 900", "unit": "fold"}, {"measurement": "selectivity against other CDKs", "setting": "CDK9-Cyclin T1", "value": "at least 50 fold"}, {"measurement": "share of tested kinases still displaying an activity of greater than 80%", "setting": "[3]", "value": "More than 85%"}, {"measurement": "reduction of human CLL cells in NSG spleens compared to carrier control", "setting": "[4]; 75 mg/kg for 5 days", "value": 77, "unit": "%"}, {"measurement": "mean weight loss", "setting": "[4]; day 16", "value": 1.8, "unit": "%"}, {"measurement": "mean weight loss", "setting": "[4]; day 21", "value": 3.6, "unit": "%"}, {"measurement": "flow cytometry gate huCD4, NSG spleen T cells", "setting": "[4]; [5]", "value": 81.2}, {"measurement": "flow cytometry gate huCD8, NSG spleen T cells", "setting": "[4]; [5]", "value": 14.7}, {"measurement": "flow cytometry gate huCD45+ huCD3, NSG spleen", "setting": "[4]; [5]", "value": 38.7}, {"measurement": "numbers of splenic human T cells", "setting": "[4]; 50 and 75 mg/kg, 3 or 5 days", "value": "significantly reduced at both LDC526 doses"}]}
